# Assay results reported in patent US20240284910A1, “HERBICIDAL COMPOSITIONS” (SYNGENTA CROP PROTECTION AG, priority 2021, published 2024).
# Experiments:
# Type in all cases: in vivo
# Conditions in all cases: sprayed, evaluated after 13 days
# [1] = tested on: Stellaria media (STEME); experiment: Post-emergence glasshouse phytotoxicity test, STEME
# Procedure: (§1) Seeds of Chenopodium album (CHEAL), Ipomoea hederacea (IPOHE), Amaranthus retroflexus (AMARE) and Abutilon threophrasti (ABUTH) and Stellaria media (STEME) were sown in standard sterilised soil in pots. After cultivation for 8 days under controlled conditions in a glasshouse (at 24/19° C., day/night; 16 hours light; no humidity control), the plants were sprayed at 500 I/Ha with an aqueous spray solution derived from the formulation of the technical active ingredients in a small amount of acetone and a solvent and emulsifier mixture referred to as IF50 (11.12% Emulsogen EL360 TM+44.44% N-methylpyrrolidone+44.44% Dowanol DPM glycol ether), to create a 50 g/l solution which was then diluted using 0.2% Genapol XO80 (CAS Number: 9043-30-5) as diluent to give the desired final dose of test compound. Where active ingredients were applied as mixtures, aqueous spray solutions were prepared as above, containing both active ingredients. The test plants were then grown under controlled conditions in a glasshouse (at 24/18° C., day/night; 15 hours light; 50% humidity) and watered twice daily. After 13 days, the test was evaluated visually for percentage phytotoxicity to the plants (where 100=total damage to plant; 0=no damage to plant) when compared to control untreated plants. Two to four replicates were applied for each treatment in a randomised block test design.
# (§2) 22., E=X+Y−(X*Y/100), where • X=average percent phytotoxicity of herbicide A when applied at a certain rate • Y=average percent phytotoxicity using herbicide B when applied at a certain rate • E=the expected effect of the mixture of herbicides A and B as calculated from the Colby formula.
# [2] = tested on: Abutilon threophrasti (ABUTH); experiment: Post-emergence glasshouse phytotoxicity test, ABUTH
# Procedure: as §1, with “Where active ingredients were applied as mixtures, aqueous spray solutions were prepared as above, containing both active ingredients. The test plants were then grown under controlled conditions in a glasshouse (at 24/18° C., day/night; 15 hours light; 50% humidity) and watered twice daily.” left out, “Two to four replicates were applied for each treatment in a randomised block test design.” left out
# as §2
# [3] = tested on: Ipomoea hederacea (IPOHE); experiment: Post-emergence glasshouse phytotoxicity test, IPOHE
# Procedure: as §1, §2
# [4] = tested on: Amaranthus retroflexus (AMARE); experiment: Post-emergence glasshouse phytotoxicity test, AMARE
# Procedure: as §1, §2
# [5] = tested on: Chenopodium album (CHEAL); experiment: Post-emergence glasshouse phytotoxicity test, CHEAL
# Procedure: as §1, §2
SMILES,Observed (O) percentage phytotoxicity ([1]; rate 6.25 g/ha),"Observed (O) percentage phytotoxicity ([1]; rate 12.5 g/ha, 100=total damage, 0=no damage)",Observed (O) percentage phytotoxicity ([2]; rate 12.5 g/ha),Observed (O) percentage phytotoxicity ([3]; rate 6.25 g/ha),Observed (O) percentage phytotoxicity ([3]; rate 12.5 g/ha),Observed (O) percentage phytotoxicity ([4]; rate 6.25 g/ha),Observed (O) percentage phytotoxicity ([4]; rate 25 g/ha),Observed (O) percentage phytotoxicity ([5]; rate 6.25 g/ha),Observed (O) percentage phytotoxicity ([5]; rate 12.5 g/ha),Observed (O) percentage phytotoxicity ([1]; rate 0.16 g/ha),Observed (O) percentage phytotoxicity ([1]; rate 0.31 g/ha),Observed (O) percentage phytotoxicity ([2]; rate 0.31 g/ha),Observed (O) percentage phytotoxicity ([3]; rate 0.16 g/ha),Observed (O) percentage phytotoxicity ([4]; rate 0.31 g/ha),Observed (O) percentage phytotoxicity ([5]; rate 0.31 g/ha)
CN1C[C@H](c2cccc(C(F)(F)F)c2)[C@@H](C(=O)Nc2ccccc2F)C1=O [I-A],33%,58%,10%,25%,38%,0%,8%,0%,28%,,,,,,
Cc1nnc(NC(=O)c2ccc(C(F)(F)F)n3c(CS(=O)(=O)C(C)C)nnc23)o1 [II],,,,,,,,,,13%,6%,34%,4%,5%,24%
